99 sequences from the OligoGym collection can be followed below.

Values joined by “and” are separate entries in the source; they are usually repeats but may differ in a detail not shown here. Equal entries are not always repeated. After the bases stand the sugars from the 5' end (letter, count) and the backbone: PS all phosphorothioate, else s phosphorothioate and o phosphodiester by linkage. Methylation of C is not given here. k = constrained ethyl (cEt); d = 2'-deoxy (DNA)

This series has as its target MALAT1. To be noted: ASO, A431, 0.005 µM.

GAGAAGAATCCCCCCC (sugars k3 d10 k3, PS): the target mRNA inhibition was determined as 17%.
For TTAGTAGCTTTTTGAT (sugars k3 d10 k3, PS), the target mRNA inhibition is 39%.
Under TCTGTGCTAGATCAAA (sugars k3 d10 k3, PS) stands 61%; under AGTTTGTCAATAGTAC (sugars k3 d10 k3, PS), 42%.
As for ATCCTCTACGCACAAC (sugars k3 d10 k3, PS), the figure is 42%; as for ACCAAATTGCACTCGC (sugars k3 d10 k3, PS), 40%.
Consider AGTGTTTACACTGCTC (sugars k3 d10 k3, PS), for which the target mRNA inhibition came to 22%.
As for ATTTTAAACGGGTCAT (sugars k3 d10 k3, PS), the figure is 7%.
In the case of CTAAGCAATATCTTAG (sugars k3 d10 k3, PS), the target mRNA inhibition was determined as 15%.
As for GTCTGAGGCAAACGAA (sugars k3 d10 k3, PS), the figure is 29%; as for GGCTATCAAATTCATT (sugars k3 d10 k3, PS), 42%; as for TCCAAAAGAGAACCAC (sugars k3 d10 k3, PS), 21%.
Under AATGGAGGTATGACAT (sugars k3 d10 k3, PS) stands 5%; under CATGTGCCTGGAATTA (sugars k3 d10 k3, PS), 26%; under ATCTCAACCTCCGTCA (sugars k3 d10 k3, PS), 34%.
Under GCCAAGCCAAGCCGCC (sugars k3 d10 k3, PS) stands 14%; under TCACAAAACCCCCGGA (sugars k3 d10 k3, PS), 16%; under GATTCATGAGTATAAG (sugars k3 d10 k3, PS), 50%.
Consider CTCAAAGTCCAATGCA (sugars k3 d10 k3, PS), for which the target mRNA inhibition stood at 48%.
Under CCCGCCTGAGCCCCGG (sugars k3 d10 k3, PS) stands -2%; under CTGTCTGAGGCAAACG (sugars k3 d10 k3, PS), 37%; under TTACCATAAGTAAGTT (sugars k3 d10 k3, PS), -20%.
Under TCTTCTAAATTGGTTC (sugars k3 d10 k3, PS) stands 49%; under CGTAACAGGCCACTGC (sugars k3 d10 k3, PS), 2%.
Under TTGCAGGGACGGTTGA (sugars k3 d10 k3, PS) stands -10%.
Consider ACACTTCTCTTGACCT (sugars k3 d10 k3, PS), for which the target mRNA inhibition is 60% and 44% and 50%.
GACTAAAGGCTTCAGT (sugars k3 d10 k3, PS): the target mRNA inhibition was 15%.
Under TCTCGGGCTGCAGGCT (sugars k3 d10 k3, PS) stands 20%; under CCTTAAAGTTACATTC (sugars k3 d10 k3, PS), 33%.
Under CCTAGCTTCCTTCACC (sugars k3 d10 k3, PS) stands 17%.
On to TCCTTCACCAAATCGC (sugars k3 d10 k3, PS), for which the target mRNA inhibition is 36%.
In the case of TCATACACTCACTAGA (sugars k3 d10 k3, PS), the target mRNA inhibition is -22%.
As for TGGGAGTTACTTGCCA (sugars k3 d10 k3, PS), the figure is 19%; as for CAGTAACATCTGATTC (sugars k3 d10 k3, PS), 57% and 78%.
TACTTTCCATTACGCA (sugars k3 d10 k3, PS): the target mRNA inhibition is 16%.
As to GGTCAGGAGAAAGTGC (sugars k3 d10 k3, PS), the target mRNA inhibition is 18%.
As for TGACCTTAGGATAATA (sugars k3 d10 k3, PS), the figure is 62%; as for AGGACTTGGCAGTCTG (sugars k3 d10 k3, PS), 30%.
CTCTAAGAGACATTCA (sugars k3 d10 k3, PS): the target mRNA inhibition worked out at 23%.
Under TCGCACTGGCTCCTGG (sugars k3 d10 k3, PS) stands 42%.
Regarding CTCTTGAGGGACAGTA (sugars k3 d10 k3, PS), the target mRNA inhibition came out at 4%.
Under GATTTGAACCCCGTCC (sugars k3 d10 k3, PS) stands -2%.
As for ATGCACTAAAGATCAC (sugars k3 d10 k3, PS), the figure is 34%; as for CCCTATATAAGGTCAA (sugars k3 d10 k3, PS), 13%; as for CCAGCCTATAAGGACA (sugars k3 d10 k3, PS), -1%.
Regarding GGAATACTCTTCCAAG (sugars k3 d10 k3, PS), the target mRNA inhibition was found to be 6%.
Under AGCTACAACAAGTAAG (sugars k3 d10 k3, PS) stands 12%; under AAGCACCGCTTGAGAT (sugars k3 d10 k3, PS), 8% and 13%.
Under TGATCATAATCTCCCA (sugars k3 d10 k3, PS) stands 43%.
Under AGTAACCTATTGACTA (sugars k3 d10 k3, PS) stands -16%.
For CAAAGACCTCGACACC (sugars k3 d10 k3, PS), the target mRNA inhibition worked out at 18%.
Under CTCGCATCACCGGAAT (sugars k3 d10 k3, PS) stands -14%.
Take GGATTTTTACCAACCA (sugars k3 d10 k3, PS): the target mRNA inhibition is 14%.
For the sequence CGTTACGAAAGTCCTT (sugars k3 d10 k3, PS), the target mRNA inhibition came to 25%.
Under ACCACCACCTGGAATG (sugars k3 d10 k3, PS) stands 22%; under AAGTTACATGTTCCCA (sugars k3 d10 k3, PS), 39%.
On to AAAGATATTGTGCTGT (sugars k3 d10 k3, PS), for which the target mRNA inhibition was determined as 11%.
Under TCTATTGCCATGTGCC (sugars k3 d10 k3, PS) stands 41%; under AACATTTGGCCTACTC (sugars k3 d10 k3, PS), 42%; under TCAACTGGGAATACTC (sugars k3 d10 k3, PS), 17%.
In the case of TCCCTATATAAGGTCA (sugars k3 d10 k3, PS), the target mRNA inhibition was 5%.
Under AGTATTATAATAGAGC (sugars k3 d10 k3, PS) stands 20%; under TCATCAAACACTGGTT (sugars k3 d10 k3, PS), 36%; under GCCATGGTTGATATTT (sugars k3 d10 k3, PS), 9%.
Under CCGCCTCTTAAAGCAC (sugars k3 d10 k3, PS) stands -9%; under TTCGGTTAAAAATAGG (sugars k3 d10 k3, PS), -7%; under CTTTACAGAAGTCTCG (sugars k3 d10 k3, PS), 22%.
Under GCCCCCCAGTTGCCGC (sugars k3 d10 k3, PS) stands -35%.
Take CTCCCCTTCAAGCACC (sugars k3 d10 k3, PS): the target mRNA inhibition amounted to 4%.
On to TTCTTAACAGCTTATG (sugars k3 d10 k3, PS), for which the target mRNA inhibition came out at 21%.
Under GCAAAATGTACTCAGC (sugars k3 d10 k3, PS) stands 23%; under ATTCCCCAATGGAGGT (sugars k3 d10 k3, PS), 36%; under GTCCCTGAAGGTGTTC (sugars k3 d10 k3, PS), 23%.
Under CACAGCTCGGGCGAGG (sugars k3 d10 k3, PS) stands 25%; under GTTAAGTTTTCAGCAG (sugars k3 d10 k3, PS), 17%; under GCATCTAGGCCATCAT (sugars k3 d10 k3, PS), 57%.
As for CACTTGATCCCAACTC (sugars k3 d10 k3, PS), the figure is 44%; as for CCTTAGGATAATAGCG (sugars k3 d10 k3, PS), 60% and 51%.
GATCACTTTAGAGGCT (sugars k3 d10 k3, PS): the target mRNA inhibition was -8%.
Regarding CCTGGGTCAGCTGTCA (sugars k3 d10 k3, PS), the target mRNA inhibition is 51%.
In the case of CGCTTTTATTCTGCTT (sugars k3 d10 k3, PS), the target mRNA inhibition came out at 6%.
Under TTTAAATGACGCAATT (sugars k3 d10 k3, PS) stands 15%; under CTGAACTATCACAATT (sugars k3 d10 k3, PS), 28%; under ACCGTTTTTCAGCTTC (sugars k3 d10 k3, PS), -30%.
For the sequence CTGCGACTTGCTCCCA (sugars k3 d10 k3, PS), the target mRNA inhibition came out at 10%.
As for CCAGGCTGGTTATGAC (sugars k3 d10 k3, PS), the figure is 44%.
As for AATACTTGTCTTAGCT (sugars k3 d10 k3, PS), the figure is 41%; as for GGCAGTTATATTAGGT (sugars k3 d10 k3, PS), 16%.
Take CTGCTTACAGATTTGC (sugars k3 d10 k3, PS): the target mRNA inhibition is 49%.
Regarding TCCGCTCAAATCCTGA (sugars k3 d10 k3, PS), the target mRNA inhibition stood at 26%.
Under ATTACTCTAATCACTG (sugars k3 d10 k3, PS) stands 28%.
Under AAGCGAATGGCTTTGT (sugars k3 d10 k3, PS) stands 6%; under ATGCATTCTAATAGCA (sugars k3 d10 k3, PS), -1%; under TCCGTCATGTTTTAGA (sugars k3 d10 k3, PS), 50% and 48%.
For GTAGGTATAGTTTACC (sugars k3 d10 k3, PS), the target mRNA inhibition is 39%.
In the case of TTCAAGCACCGCTTGA (sugars k3 d10 k3, PS), the target mRNA inhibition is 12% and 25%.
Regarding TTTTAGCAGTAACATC (sugars k3 d10 k3, PS), the target mRNA inhibition was determined as 34%.
Consider CTCTATACTTTGAAGG (sugars k3 d10 k3, PS), for which the target mRNA inhibition was 20%.
Under CCCGGAAATCGGCCTA (sugars k3 d10 k3, PS) stands 0%.
